Assay results reported in publication PMC5584945, “Evaluation of robenidine analog NCL195 as a novel broad-spectrum antibacterial agent” (PLoS ONE, 2017).
Read-outs that look alike come from different tables or passages of the source.

What was measured:
[1] = LogD by gradient HPLC chromatographic method; format: physicochemical; conditions: pH 7.4
[2] = tested on: Enterococcus faecalis ATCC 29212; test: MIC, broth micro-dilution (CLSI), control strain; format: cell-based
Procedure, shortened: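 MICs by CLSI broth micro-dilution, in duplicate, using serial two-fold dilutions starting at 128 μg/ml. Against Gram-negative species including N. meningitidis, MICs were measured with or without 0.08 mM-20 mM EDTA in a standard checkerboard. MIC50, MIC90 and range were derived per isolate set.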

Hep G2 = test: Real-time cell viability, RealTime-Glo MT; format: cell-based, human; conditions: 2 or 8 μg/ml, up to 20 h post-treatment
MDBK = test: In vitro cytotoxicity, WST-1; format: cell-based, bovine; conditions: Bos taurus, 24 h exposure, read-out: IC50 values ± SEM
Text: (§1) In order to ensure minimal off target mammalian cell cytotoxicity, we assayed NCL812, NCL195 and NCL219 for in vitro cytotoxicity using a panel of adherent mammalian cell lines: Caco-2 (human colorectal adenocarcinoma cell line), HEL 299 (non-cancerous human lung fibroblast cell line), Hep G2 (human hepatocellular carcinoma cell line), MDBK (normal bovine kidney cell line) and MCF7 (human mammary gland adenocarcinoma cell line). Cell lines were maintained in Dulbecco’s Modified Eagle’s Medium (DMEM; […] After 24 h incubation, media was removed, washed once with medium without antibiotics and fresh medium supplemented with 10% (vol/vol) FBS was added. […] Following exposure for 24 h, WST-1 reagent was added to each well at a final concentration of 10%. […] The IC50 value for each compound against each cell line was determined via non-linear regression (three parameters) using GraphPad Prism v6 software. The robustness of assays was confirmed with selected cell lines (Hep G2 and MDBK) seeded onto a 96–well Microwell Nunclon Delta Surface plate (Thermo Scientific Nunc; Cat No: 136101) at 5 × 10^4 cells per well.

[3] = tested on: panel of mammalian cell lines (Caco-2, HEL 299, Hep G2, MDBK, MCF7); test: In vitro cytotoxicity, WST-1, all cell lines tested; format: cell-based; conditions: lower bound over all the cell lines tested
Text: as §1

S. aureus Xen29 = test: Minimum bactericidal concentration (MBC); format: cell-based; conditions: Staphylococcus aureus, 99.9% colony count reduction
Procedure: The tray was covered with Breathe-Easy sealing membrane (Z380059, Sigma-Aldrich) and incubated for 16 h overnight at 35°C in an EnSpire Multimode Plate Reader 2300 (PerkinElmer), with data collected every 20 min and 2 sec agitation at 60 rpm between data (A600 nm) acquisitions. The experiment was repeated using the luminescent D39LUX strain on a Cytation 5 Cell Imaging Multi-Mode Reader (BioTek) using IsoplateTM-96 F tray PerkinElmer, 6005020). Kill kinetic assays on S. aureus Xen29 was carried out essentially as described for MIC determination on Cytation 5 Cell Imaging Multi-Mode Reader.
In order to determine the MBC of each compound against S. pneumoniae D39 or S. aureus Xen29, 10 μl aliquots from each duplicate well from the MIC assays (starting from the MIC for each compound) was inoculated onto a HBA plate and incubated at 37°C (+ 5% CO2 for S. pneumoniae D39). Plates were examined at 24 and 48 h and the MBC was recorded as the lowest concentration of each test compound at which a 99.9% colony count reduction was observed on the plate.

S. aureus = test: MIC, broth micro-dilution (CLSI); format: cell-based, Staphylococcus aureus; conditions: for MIC / MIC50 / MIC90: Staphylococcus aureus
human red blood cells = test: Haemolysis assay; format: cell-based; conditions: 1 h, 37°C; highest concentration used 128 μg/ml
Procedure: This was performed using fresh donor human red blood cells (RBCs), essentially as described previously. Fresh RBCs were washed in PBS three times at 500 × g for 5 min, and then resuspended 1% (w/v) in PBS. […] Thereafter, 198 μL of the 1% RBC solution was added into each well, and the mixture incubated for 1 h at 37°C, with shaking at 100 rpm. Quadruplicate wells containing either 1% Triton X100, or PBS only, served as controls. After incubation, the trays were centrifuged at 1,000 × g for 3 min and 100 μl of supernatant from each well transferred into a new 96-well tray. Absorbance was measured at A450 nm on a Multiskan Ascent 354 Spectrophotometer (Labsystems) and plotted against each dilution. Haemolytic titer was determined as the reciprocal of the dilution at which 50% of erythrocytes were lysed at A450 nm. The experiment was performed twice.

S. aureus ATCC49775 = test: Membrane potential, DiOC2(3) fluorescence; format: cell-based, Staphylococcus aureus; conditions: 16 μg/ml, pre-incubated 5 min; versus untreated and ampicillin
Procedure: To further examine the mechanism underlying the perturbation of the cell membrane of S. pneumoniae or S. aureus by the NCL compounds, the membrane potential of the cells was measured by fluorescence spectrometry using (DiOC2(3), essentially as described previously. Briefly, […] cells from an overnight HBA plate were grown in Todd-Hewitt broth supplemented with 1% yeast extract (THY) at 37°C, 5% CO2 until A600 nm = 0.5. […] The cuvette was then placed in a LS 55 Fluorescence Spectrometer (PerkinElmer) set at Ex. 488 nm/Em. 620 nm, with excitation and emission slit widths at 5 nm and 7 nm, respectively). […] All assays were performed at least twice.

[4] = S2 Table isolates, absence of FBS

`Cl.N=C(NN=Cc1ccc(Cl)cc1)NN=Cc1ccc(Cl)cc1` [NCL812, 2,2'-bis[(4-chlorophenyl)methylene] carbonimidic dihydrazide hydrochloride] gave a chromatographic logD [1] of 4.5, an MIC ([2]; ATCC29212, 10% FBS) of 32 mg/L and an MIC ([2]; ATCC29212, absence of FBS) of 4 mg/L. For the same compound, the “Effect on cell viability (real-time)” value (Hep G2) was “affected viability at 8 μg/ml”, the IC50 (MDBK) was 5.9 ± 0.1 mg/L and the IC50 [3] was over 4 mg/L. For the same compound, the MBC (S. aureus Xen29) was 4 mg/L, the “Fold increase of MIC range in the presence of 10% FBS” value (S. aureus; 10% FBS versus no FBS) was 4-8 fold and the MIC range (S. aureus; 23 isolates) was 2 to 8 mg/L. The MIC range (S. aureus; S2 Table isolates, 10% FBS) was 32 mg/L, the MIC range (S. aureus; [4]) was 2 to 8 mg/L and the MIC (S. aureus; ATCC 12600 / MSSA, ATCC12600 [Xen29] (MSSA), 10% FBS) was 32 mg/L. For the same compound, the MIC (S. aureus; ATCC 12600 / MSSA, ATCC12600 [Xen29] (MSSA), absence of FBS) was 4 mg/L, the MIC (S. aureus; ATCC 29213 / MSSA, ATCC29213 MSSA (ST5), 10% FBS, read-out: MIC) was 32 mg/L and the MIC (S. aureus; ATCC 29213 / MSSA, ATCC29213 MSSA (ST5), absence of FBS, read-out: MIC) was 4 mg/L. The MIC (S. aureus; ATCC 49775 / MSSA, ATCC 49775 (MSSA), 10% FBS, read-out: MIC) was 32 mg/L, the MIC (S. aureus; ATCC 49775 / MSSA, ATCC 49775 (MSSA), absence of FBS, read-out: MIC) was 2 mg/L and the MIC (S. aureus; IRISH 1 – HA-EMRSA (ST8), 10% FBS, read-out: MIC) was 32 mg/L. For the same compound, the MIC (S. aureus; IRISH 1 – HA-EMRSA (ST8), absence of FBS, read-out: MIC) was 2 mg/L, the MIC (S. aureus; IRISH 2 – HA-EMRSA (ST8), 10% FBS, read-out: MIC) was 32 mg/L and the MIC (S. aureus; IRISH 2 – HA-EMRSA (ST8), absence of FBS, read-out: MIC) was 2 mg/L. The MIC (S. aureus; MRSA / USA300, USA 300 - MRSA (ST8), 10% FBS, read-out: MIC) was 32 mg/L, the MIC (S. aureus; MRSA / USA300, USA 300 - MRSA (ST8), absence of FBS, read-out: MIC) was 2 mg/L and the MIC (S. aureus; MRSA, AUS2-MRSA (ST239), 10% FBS, read-out: MIC) was 32 mg/L. It also gave an MIC (S. aureus; MRSA, AUS2-MRSA (ST239), absence of FBS, read-out: MIC) of 2 mg/L, an MIC (S. aureus; MRSA, AUS3-MRSA (ST239), 10% FBS, read-out: MIC) of 32 mg/L and an MIC (S. aureus; MRSA, AUS3-MRSA (ST239), absence of FBS, read-out: MIC) of 2 mg/L. For the same compound, the MIC (S. aureus; MRSA, BENGAL BAY PVL+ – CA-MRSA (ST772), 10% FBS, read-out: MIC) was 32 mg/L, the MIC (S. aureus; MRSA, BENGAL BAY PVL+ – CA-MRSA (ST772), absence of FBS, read-out: MIC) was 2 mg/L and the MIC (S. aureus; MRSA, Classic–HA-MRSA (ST250), 10% FBS, read-out: MIC) was 32 mg/L. For the same compound, the MIC (S. aureus; MRSA, Classic–HA-MRSA (ST250), absence of FBS, read-out: MIC) was 2 mg/L, the MIC (S. aureus; MRSA, NY JAPAN – HA MRSA (ST5), 10% FBS, read-out: MIC) was 32 mg/L and the MIC (S. aureus; MRSA, NY JAPAN – HA MRSA (ST5), absence of FBS, read-out: MIC) was 2 mg/L. For the same compound, the MIC (S. aureus; MRSA, QLD PVL+ –CA-MRSA (ST93), 10% FBS, read-out: MIC) was 32 mg/L, the MIC (S. aureus; MRSA, QLD PVL+ –CA-MRSA (ST93), absence of FBS, read-out: MIC) was 2 mg/L and the MIC (S. aureus; MRSA, ST398–CA-MRSA-V (ST398), 10% FBS, read-out: MIC) was 32 mg/L. It also gave an MIC (S. aureus; MRSA, ST398–CA-MRSA-V (ST398), absence of FBS, read-out: MIC) of 2 mg/L, an MIC (S. aureus; MRSA, WA2–CA-MRSA (ST78), absence of FBS) of 4 mg/L and an MIC (S. aureus; MRSA, WA84–CA-MRSA (ST45), absence of FBS) of 4 mg/L. For the same compound, the MIC (S. aureus; MRSA, WSPP – PVL neg CA MRSA (ST30), absence of FBS, read-out: MIC) was 2 mg/L, the MIC50 (S. aureus; S2 Table isolates, 10% FBS) was 32 mg/L and the MIC90 (S. aureus; S2 Table isolates, 10% FBS) was 32 mg/L. It also gave an MIC50 (S. aureus; [4]) of 2 mg/L, an MIC90 (S. aureus; [4]) of 4 mg/L and an MIC (S. aureus; TAIWAN PVL+ – CA-cMRSA (ST59), 10% FBS, read-out: MIC) of 32 mg/L. It also gave an MIC (S. aureus; TAIWAN PVL+ – CA-cMRSA (ST59), absence of FBS, read-out: MIC) of 2 mg/L, an MIC (S. aureus; UK 15 PVL+ – HA-EMRSA (ST22), 10% FBS, read-out: MIC) of 32 mg/L and an MIC (S. aureus; UK 15 PVL+ – HA-EMRSA (ST22), absence of FBS, read-out: MIC) of 4 mg/L. For the same compound, the MIC (S. aureus; UK 15 – HA-EMRSA (ST22), 10% FBS, read-out: MIC) was 32 mg/L, the MIC (S. aureus; UK 15 – HA-EMRSA (ST22), absence of FBS, read-out: MIC) was 4 mg/L and the MIC (S. aureus; UK 16 – HA- EMRSA (ST36), 10% FBS, read-out: MIC) was 32 mg/L. It also gave an MIC (S. aureus; UK 16 – HA- EMRSA (ST36), absence of FBS, read-out: MIC) of 4 mg/L, an MIC (S. aureus; UK 17 – HA-EMRSA (ST247), 10% FBS, read-out: MIC) of 32 mg/L and an MIC (S. aureus; UK 17 – HA-EMRSA (ST247), absence of FBS, read-out: MIC) of 2 mg/L. The “50% haemolysis titre (HC50)” value (human red blood cells) was 24 µg/mL and the “Effect on generated membrane potential” value (S. aureus ATCC49775) was “large reduction in the magnitude of the generated membrane potential”.
